Calls of active or inactive are those of the source. The rule behind the calls is not given here.
biological target: T1, Serine/threonine-protein kinase Chk1 (Homo sapiens, UniProt O14757); experiment: Competitive inhibition of Chk1 in presence of higher ATP levels
T1 sequence (O14757 whole entry): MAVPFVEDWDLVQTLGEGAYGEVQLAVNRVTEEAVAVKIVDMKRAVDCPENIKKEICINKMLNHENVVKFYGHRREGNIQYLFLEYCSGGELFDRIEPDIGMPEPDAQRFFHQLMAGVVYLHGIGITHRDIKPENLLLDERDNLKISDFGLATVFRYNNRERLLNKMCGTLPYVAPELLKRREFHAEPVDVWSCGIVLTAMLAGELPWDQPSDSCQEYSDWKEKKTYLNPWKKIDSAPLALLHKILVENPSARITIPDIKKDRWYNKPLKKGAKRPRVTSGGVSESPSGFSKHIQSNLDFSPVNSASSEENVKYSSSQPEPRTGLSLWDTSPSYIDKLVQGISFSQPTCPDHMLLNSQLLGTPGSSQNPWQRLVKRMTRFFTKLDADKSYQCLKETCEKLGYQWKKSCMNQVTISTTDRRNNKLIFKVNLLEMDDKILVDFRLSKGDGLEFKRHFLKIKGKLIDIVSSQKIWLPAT

First: Cc1ccc(-c2cnc(Nc3cc(N4CCN(S(C)(=O)=O)CC4)ccn3)s2)cn1
Second: CC(=O)N1CCN(c2ccnc(Nc3ncc(-c4ccc(C)nc4)s3)c2)CC1
The IC50 of the first is 1.8-fold lower: 113 nM for the first, 206 nM for the second. The first is the more potent here.

NCCNC(=O)c1cncc(-c2cnc(Nc3cc(N4CCC(F)(F)CC4)ccn3)s2)c1 and NCCNC(=O)c1cncc(-c2cnc(Nc3cc(N4CCNCC4)ccn3)s2)c1 are the same in IC50: 0.05 nM for the first, 0.05 nM for the second.

Compared with OCC1CN(c2ccnc(Nc3ncc(-c4cccnc4)s3)c2)CCO1 (stereo not drawn), c1cncc(-c2cncc(-c3cnc(Nc4cc(N5CCOCC5)ccn4)s3)c2)c1 is 2.6-fold lower in IC50: 49 nM for the first, 19 nM for the second. The second is the more potent here.

First: COc1ncccc1-c1cncc(-c2cnc(Nc3cc(N4CCOCC4)ccn3)s2)c1
Second: COc1ncc(-c2cncc(-c3cnc(Nc4cc(N5CCOCC5)ccn4)s3)c2)cn1
The IC50 of the first is 5.8-fold higher: 350 nM for the first, 60 nM for the second.

First: Brc1cccc(-c2cnc(Nc3cc(N4CCNCC4)ccn3)s2)c1
Second: c1ccc(-c2cnc(Nc3cc(N4CCNCC4)ccn3)s2)cc1
The IC50 of the first is higher: over 1050 nM for the first, 520 nM for the second. The second is the more potent here.

CC(=O)N1CCN(c2ccnc(Nc3ncc(-c4cncc(C(=O)NCCN)c4)s3)c2)CC1 and CS(=O)(=O)N1CCN(c2ccnc(Nc3ncc(-c4cncc(C(=O)NCCN)c4)s3)c2)CC1 are the same in IC50: 0.03 nM for the first, 0.03 nM for the second.

Compared with OCC#Cc1cncc(-c2cnc(Nc3cc(N4CCOCC4)ccn3)s2)c1, N#Cc1cncc(-c2cnc(Nc3cc(N4CCOCC4)ccn3)s2)c1 is 73-fold higher in IC50: 6 nM for the first, 440 nM for the second. The first is the more potent here.

Going from Cc1ncc(-c2cnc(Nc3cc(N4CCNCC4)ccn3)s2)cn1 to Cc1ncc(-c2cnc(Nc3cc(N4CCOCC4)ccn3)s2)cn1, the IC50 rises from 29 nM to 60 nM (2.1-fold).

First: Cc1ncc(-c2cnc(Nc3cccc(N4CCNCC4)n3)s2)cn1
Second: Cc1ccc(-c2cnc(Nc3cc(N4CCNCC4)ccn3)s2)cn1
The IC50 of the first is 3.2-fold higher: 120 nM for the first, 37 nM for the second.

Compared with NC/C=C/c1cncc(-c2cnc(Nc3cc(N4CCOCC4)ccn3)s2)c1, NCCCc1cncc(-c2cnc(Nc3cc(N4CCOCC4)ccn3)s2)c1 is 27-fold lower in IC50: 320 nM for the first, 12 nM for the second.

CNCCNC(=O)c1cncc(-c2cnc(Nc3cc(N4CCOCC4)ccn3)s2)c1 and NCCCNC(=O)c1cncc(-c2cnc(Nc3cc(N4CCOCC4)ccn3)s2)c1 are within 1.5-fold of each other in IC50: 1 nM for the first, 1.4 nM for the second.

First: OCCNc1ccnc(Nc2ncc(-c3cncnc3)s2)c1
Second: CS(=O)(=O)N1CCN(c2ccnc(Nc3ncc(-c4cncnc4)s3)c2)CC1
The IC50 of the first is 1.9-fold higher: 90 nM for the first, 47 nM for the second. The second is the more potent here.

Compared with c1cc(N2CCNCC2)cc(Nc2ncc(-c3cncc(-c4cn[nH]c4)c3)s2)n1, c1cc(N2CCOCC2)cc(Nc2ncc(-c3cncc(-c4cn[nH]c4)c3)s2)n1 is 4.4-fold higher in IC50: 8 nM for the first, 35 nM for the second.

Going from c1ncc(-c2cncc(-c3cnc(Nc4cc(N5CCOCC5)ccn4)s3)c2)cn1 to NCCC(=O)c1cncc(-c2cnc(Nc3cc(N4CCOCC4)ccn3)s2)c1, the IC50 falls from 37 nM to 0.27 nM (140-fold).

Compared with NCCNC(=O)c1cncc(-c2cnc(Nc3cc(CN4CCOCC4)ccn3)s2)c1, N#Cc1cncc(-c2cnc(Nc3cc(N4CCNCC4)ccn3)s2)c1 is 88-fold higher in IC50: 0.4 nM for the first, 35 nM for the second.

With Cc1ncc(-c2cnc(Nc3cccc(NCCCN)n3)s2)cn1 the IC50 was 29 nM.

biological target: T2, Serine/threonine-protein kinase Chk1 (Homo sapiens) (UniProt O14757); experiment: Inhibition of immobilized Chk1 at 11 nM incubated for 30 mins followed by 24 hrs washout by HTRF assay
T2 sequence (whole entry): T1 sequence (O14757 whole entry)

NCCNC(=O)c1cncc(-c2cnc(Nc3cc(N4CCC(F)(F)CC4)ccn3)s2)c1 was tested, and the inhibition was “Active”.

biological target: T2, Serine/threonine-protein kinase Chk1 (Homo sapiens); experiment: Competitive inhibition of immobilized Chk1 at 11 nM incubated for 30 mins followed by 24 hrs washout by HTRF assay in presence of 100 uM ATP

With NCCNC(=O)c1cncc(-c2cnc(Nc3cc(N4CCC(F)(F)CC4)ccn3)s2)c1 the inhibition was “Active”.

From ChEMBL document CHEMBL2010744, “Pyridyl aminothiazoles as potent inhibitors of Chk1 with slow dissociation rates” (Bioorg Med Chem Lett, 2012)
